Marks after values point to notes of the source that are not given here.
Tested on: bedbug (Cimex lectularius)
Test: Contact efficacy against bedbugs on various surfaces (wood, PVC, wallpaper, mattress, glass)
Type: in vivo
Conditions: for efficacy on wood, PVC, wallpaper, mattress and glass (summary in words): Example 106, imidacloprid 0.008% or 0.0016% (30 and 6 mg a.i./m^2)
Procedure: Adult Cimex lectularius, susceptible strain, were used. A solution of the active ingredient in acetone was prepared. In the same mode a complete […]. All these works were done under drawing off conditions. After evaporation of the acetone (30′) the dishes were closed by a glass lid and transferred into the test room.
One day later ten bedbugs, anaesthetized with CO2, were counted into each dish. At regular intervals, knock down was recorded (cumulatively).
The same methodology was used as was used in Example 105.

[1] = Glass, 0.008% imidacloprid (30 mg/m^2) in acetone
[2] = Mattress, 0.0016% imidacloprid (6 mg/m^2) in acetone
[3] = Mattress, 0.008% imidacloprid (30 mg/m^2) in acetone
[4] = PVC, 0.0016% imidacloprid (6 mg/m^2) in acetone
[5] = PVC, 0.008% imidacloprid (30 mg/m^2) in acetone
[6] = Wallpaper, 0.0016% imidacloprid (6 mg/m^2) in acetone
[7] = Wallpaper, 0.008% imidacloprid (30 mg/m^2) in acetone
[8] = Wood, 0.0016% imidacloprid (6 mg/m^2) in acetone
[9] = Wood, 0.008% imidacloprid (30 mg/m^2) in acetone

O=[N+]([O-])NC1=NCCN1Cc1ccc(Cl)nc1 [imidacloprid]
efficacy on wood, PVC, wallpaper, mattress and glass (summary in words): No efficacy was found on wood, PVC, wallpaper and mattress
efficacy on wood, PVC, wallpaper, mattress and glass (summary in words) (listed as 0.008% imidacloprid): On glass, 0.008% imidacloprid alone acted relatively fast and had killed all bed bugs within one day
% knock down or moribund after 1 h [1]: 0%
% knock down or moribund after 2 h [1]: 100* %
% knock down or moribund after 4 h [1]: 85%
% knock down or moribund after 6 h [1]: 90%
% knock down or moribund after 1 d [1]: 100%
% knock down or moribund after 2 d [1]: 100%
% knock down or moribund after 6 d [1]: 100%
% knock down or moribund after 1 h [2]: 0%
% knock down or moribund after 2 h [2]: 0%
% knock down or moribund after 4 h [2]: 0%
% knock down or moribund after 6 h [2]: 0%
% knock down or moribund after 1 d [2]: 0%
% knock down or moribund after 2 d [2]: 0%
% knock down or moribund after 6 d [2]: 0%
% knock down or moribund after 1 h [3]: 0%
% knock down or moribund after 2 h [3]: 0%
% knock down or moribund after 4 h [3]: 0%
% knock down or moribund after 6 h [3]: 0%
% knock down or moribund after 1 d [3]: 0%
% knock down or moribund after 2 d [3]: 0%
% knock down or moribund after 6 d [3]: 0%
% knock down or moribund after 1 h [4]: 0%
% knock down or moribund after 2 h [4]: 0%
% knock down or moribund after 4 h [4]: 0%
% knock down or moribund after 6 h [4]: 0%
% knock down or moribund after 1 d [4]: 0%
% knock down or moribund after 2 d [4]: 0%
% knock down or moribund after 6 d [4]: 20%
% knock down or moribund after 1 h [5]: 0%
% knock down or moribund after 2 h [5]: 0%
% knock down or moribund after 4 h [5]: 0%
% knock down or moribund after 6 h [5]: 0%
% knock down or moribund after 1 d [5]: 0%
% knock down or moribund after 2 d [5]: 0%
% knock down or moribund after 6 d [5]: 40%
% knock down or moribund after 1 h [6]: 0%
% knock down or moribund after 2 h [6]: 0%
% knock down or moribund after 4 h [6]: 0%
% knock down or moribund after 6 h [6]: 0%
% knock down or moribund after 1 d [6]: 0%
% knock down or moribund after 2 d [6]: 0%
% knock down or moribund after 6 d [6]: 0%
% knock down or moribund after 1 h [7]: 0%
% knock down or moribund after 2 h [7]: 0%
% knock down or moribund after 4 h [7]: 0%
% knock down or moribund after 6 h [7]: 0%
% knock down or moribund after 1 d [7]: 0%
% knock down or moribund after 2 d [7]: 0%
% knock down or moribund after 6 d [7]: 0%
% knock down or moribund after 1 h [8]: 0%
% knock down or moribund after 2 h [8]: 0%
% knock down or moribund after 4 h [8]: 0%
% knock down or moribund after 6 h [8]: 0%
% knock down or moribund after 1 d [8]: 0%
% knock down or moribund after 2 d [8]: 0%
% knock down or moribund after 6 d [8]: 10%
% knock down or moribund after 1 h [9]: 0%
% knock down or moribund after 2 h [9]: 0%
% knock down or moribund after 4 h [9]: 0%
% knock down or moribund after 6 h [9]: 0%
% knock down or moribund after 1 d [9]: 0%
% knock down or moribund after 2 d [9]: 0%
% knock down or moribund after 6 d [9]: 0%
